The record followed here is patent US5242684A, “Antimicrobial, low toxicity, non-irritating composition comprising a blend of bis-quaternary ammonium compounds coprecipitated with a copolymer of vinylpyrrolidone and an acrylamido or vinyl quaternary ammonium monomer” (ISP Investments Inc., priority 1991, dated 1993).

For one data set, the system named is E.Coli. Briefly: Minimum Inhibitory Concentration (MIC) against E.Coli. The class given is cell-based. The conditions noted are these: Gram negative, coprecipitates at 50:50 wt. ratio with GAFQUAT HS-100, unit assumed. From the text: The antimicrobial activity of the products herein are represented by their Minimum Inhibitory Concentration (MIC) against E.Coli, a Gram negative microorganism. Their effect on skin is indicated by an Irritation Index. These properties are presented in the Table below for the individual compounds in blend D and the invention composition of several D, H and L blend compositions coprecipitated in a 50:50 wt. ratio with GAFQUAT® HS-100.

A further data set in a line: LD50 toxicity (on rats). The following applies: rat, in vivo.

The term MIC denotes the smallest concentration in the dilution series that meets the test's criterion for growth inhibition. Broadly, the LD50 is the dose at which mortality reaches 50%. A high value points to a less toxic substance. Consider `CCCCCCCCCCCC[N+](C)(C)CCOCCOCC[N+](C)(C)CCCCCCCCCCCC` [A compound in D blend], for which the MIC in the data set on E.Coli worked out at 100 µg/mL. For the same molecule, in the data set “LD50 toxicity (on rats)”, the LD50 turned out to be 300 mg/kg.

Take `CCCCCCCCCCCCCC[N+](C)(C)CCOCCOCC[N+](C)(C)CCCCCCCCCCCC` [B compound in D blend]: in the data set on E.Coli, the MIC was found to be 50 µg/mL. In the data set “LD50 toxicity (on rats)”, this molecule had an LD50 of 700 mg/kg.

As to `CCCCCCCCCCCCCC[N+](C)(C)CCOCCOCC[N+](C)(C)CCCCCCCCCCCCCC` [C compound in D blend], the MIC with E.Coli stood at 125 µg/mL. Besides, the LD50 in the data set “LD50 toxicity (on rats)” stood at 950 mg/kg.
